These results are taken from US20210322508A1, “PEPTIDES AND COMPOSITIONS FOR TARGETED TREATMENT AND IMAGING” (SIGNABLOK, INC., priority 2018, published 2021).

Data set [1] in a line: tolerability in healthy mice (body weight). In kind it is in vivo. Particulars: healthy C57BL/6 mice, average weights. The protocol: As described herein, healthy C57BL/6 mice were intraperitoneally (i.p.) administered daily for 7 consecutive days with GF9 at indicated doses Mouse body weight (BW) was measured daily.
The subject of data set [2] is mouse lipoproteins.
For data set [3], the system named is J774A.1 macrophages. Nature of the data set: In vitro macrophage endocytosis of fluorescent peptides with or without HDL. Particulars: in the presence or absence of HDL. It is filed as cell-based, mouse. The protocol: The BALB/c murine macrophage cell line J774A.1 (ATCC TIB-67) were obtained from the American Type Culture Collection (ATCC, Manassas, Va.). The macrophage cells were cultured at 37° C. with 5% CO2 in Dulbecco's modified Eagle's medium (DMEM) (Cellgro, Mediatech Inc, Manassas, Va.) with 2 mM glutamine, 100 U/ml penicillin, 0.1 mg/ml streptomycin, and 10% fetal bovine serum (FBS) (Cellgro, Mediatech Inc, Manassas, Va.) and grown to approximately 90% of confluence in 6-well tissue culture plates (Corning, Tewksbury, Mass.). Cells were incubated for varied time periods from 4 to 24 h at 37° C. with fluorescently labeled peptides (pre-incubated with 1 mg/ml HDL) at a concentration of 4 μM rhodamine B (rho-B). After incubation, cells were washed twice with PBS and lysed using Promega passive lysis buffer (Promega, Madison, Wis.). The rho B fluorescence was measured in the lysates with a 540 nm excitation and a 590 nm emission filters using the Gemini EM fluorescence microplate reader (Molecular Devices, Sunnyvale, Calif.). The protein concentration in the lysates was determined using the Bradford reagent (Bio-Rad, Richmond, Calif.) and the SpectraMax 190 microplate reader (Molecular Devices, Sunnyvale, Calif.).
In one embodiment, after reaching target confluency, cells were incubated for 1 h in medium with or without fucoidan (400 μg/mL), BLT-1 (10 μM) or cytochalasin D (40 μM), Cells were subsequently incubated for 4 h and 22 h at 37° C. in medium containing 2 μM of rho B-labeled peptides G-KV21 and G-HV21 (as calculated for rho B) that were pre-incubated with 1 mg/ml HDL. After incubation, cells were washed twice with PBS and lysed using Promega passive lysis buffer. The rho B fluorescence and protein concentration were measured in the lysates as described above.

Data set [4] is described as follows: Mouse tolerability studies. In kind it is in vivo. Particulars: female, C57BL/6, mouse, in vivo, ip, 400 mg/kg; free form, healthy mice. The protocol: Naïve, female C57BL/6 mice at 8 to 10 weeks of age (18 to 21 g) from the Jackson Laboratory were used. […] Clinical observations and body weights were made twice daily.
Naïve, female C57BL/6 mice at 8 to 10 weeks of age (18 to 21 g) from the Jackson Laboratory were used. Animals were randomly grouped (5 mice per group) and i.p. injected with 400 mg/kg G-HV21, G-KV21 or G-TE21. Clinical observations and body weights were made twice daily.

Data set [5] deals with LPS-stimulated J774A.1 macrophages (TNF-alpha, IL-6, IL-1beta). Briefly: In vitro cytokine release by LPS-stimulated macrophages. It is filed as cell-based, mouse. The following applies: 10 ng/ml after pre-incubation with HDL; LPS 1 μg/ml, 24 h. The protocol:
(§1) The BALB/c murine macrophage cell line J774A.1 (ATCC TIB-67) were obtained from the American Type Culture Collection (ATCC, Manassas, Va.). Macrophages were cultured in 48-well plates (Corning, Cambridge, Mass.) for 24 h at 37° C. in the presence of LPS (1 μg/ml, Escherichia coli 055:B5, Sigma) in combination with 10 ng/ml peptides either pre-incubated or not with HDL. Cell-free supernatants were harvested and stored at −20° C. for later cytokine quantification. TNF-alpha, IL-6, and IL-1beta were assayed using commercial ELISA kits (Pierce Biotechnology, Thermo Scientific, Rockford, Ill.) according to the recommendations of the manufacturer. Results were represented as the mean±S.D. of three independent experiments. Statistical significances in in vitro macrophage uptake assay were determined by two-tailed Student's t test.
as §1, with “Macrophages were cultured in 48-well plates (Corning, Cambridge, Mass.) for 24 h at 37° C. in the presence of LPS (1 μg/ml, Escherichia coli 055:B5, Sigma) in combination with 10 ng/ml peptides either pre-incubated or not with HDL.” left out

For data set [6] the following is noted: in vivo; cited from earlier work.
Data set [7] deals with T1, TREM-1 (triggering receptor expressed on myeloid cells-1) on murine J774A.1 macrophages (mouse, UniProt Q9JKE2 21-230).
T1 construct: whole, on cells; the cells are murine
T1 sequence (looked up): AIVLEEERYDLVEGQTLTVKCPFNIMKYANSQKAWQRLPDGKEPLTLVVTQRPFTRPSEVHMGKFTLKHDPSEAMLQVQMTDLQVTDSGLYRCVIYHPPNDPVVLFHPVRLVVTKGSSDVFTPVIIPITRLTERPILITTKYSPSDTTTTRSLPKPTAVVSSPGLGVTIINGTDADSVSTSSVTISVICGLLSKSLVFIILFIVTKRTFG
Briefly: confocal immunofluorescence on macrophages; colocalisation only, no direct binding assay. The protocol: Immunofluorescence analysis of TREM-1 and TREM-1/TRIOPEP in the cell membrane was performed using the standard, well-known in the art methods as described in Shen and Sigalov J Cell Mol Med 2017, 21:2524-2534, and Rojas et al. 2018, herein incorporate by reference.
BALB/c murine macrophage J774A.1 cells were grown at 37° C. in six-well tissue culture plates containing glass coverslips. After reaching target confluency of approximately 50%, cells were incubated for 6 h at 37° C. with Dylight 488-labeled GF9 or TREM-1/TRIOPEP-sSLP that contained Dylight 488-labeled GE31. TREM-1 staining was performed was performed using an Alexa 647-labeled rat anti-mouse TREM-1 antibody (Bio-Rad, Hercules, Calif.). ProLong Gold Antifade DAPI (4′,6′-diamidino-2-phenylindole) mounting medium was used to mount coverslips, and the slides were photographed using an Olympus BX60 fluorescence microscope. Confocal imaging was performed with a Leica TCS SP5 II laser scanning confocal microscope.

No end group written: not given here.

Usually MTD stands for the highest dose tested that stayed within the study's limit of toxicity. The low end stands for a narrow tolerated range, the high end for a wide tolerated range.

On to `CC(C)C[C@H](NC(=O)[C@H](Cc1ccccc1)NC(=O)CN)C(=O)N[C@@H](CO)C(=O)N[C@@H](CCCCN)C(=O)N[C@@H](CO)C(=O)N[C@@H](CC(C)C)C(=O)N[C@H](C(=O)N[C@@H](Cc1ccccc1)C(=O)N[C@H](C(=O)N[C@@H](CCCCN)C(=O)N1CCC[C@H]1C(=O)N[C@@H](CCC(=O)O)C(=O)N[C@@H](CO)C(=O)N[C@@H](CCC(=O)O)C(=O)N[C@@H](CCCNC(=N)N)C(=O)N[C@@H](CC[S+](C)[O-])C(=O)N1CCC[C@H]1C(=O)N[C@@H](CS)C(=O)N[C@H](C(=O)N[C@@H](CCC(=O)O)C(=O)O)[C@@H](C)O)[C@@H](C)O)C(C)C` (stereo partly shown) [G-TE21, reference compound], for which the “toxicity in healthy mice” value in data set [1] is reported as “No toxicity was observed”. The “behaviour on ultracentrifugation of whole mouse serum” value in data set [2] is given as “sedimentate with serum proteins”. For the same molecule, the “macrophage endocytosis, effect of sulfoxidized methionine residue” value in data set [3] is given as “does not promote macrophage endocytosis neither in the presence or absence of HDL”. The MTD in data set [4] is at least 400 mg/kg. The “production of cytokines by LPS-stimulated macrophages” value in data set [5] is given as “does not affect on cytokine release by LPS-stimulated macrophages”.

With LQEEDAGEYGCM [LR12], the safety in humans result in data set [6] is listed as “safe”.

B1: TREM-1 inhibitory peptide GF9 (GFLSKSLVF, human TREM-1 213-221) (peptide)
peptide: GFLSKSLVF
modifications: not fully specified
notes: also called TREM-1 modulatory peptide GF9
B1: the binding result in data set [7] was “binds”.
